pIC50: −log10 of the molar value.

In the assay the target is T1, Follicle Stimulating Hormone Receptor (FSHR) (Homo sapiens, UniProt P23945).
T1 construct: HA (N); expressed in transfected cells; host or cells: CHO-K1, transient transfection, pHM6 vector (CMV promoter)
T1 sequence (P23945 18-695): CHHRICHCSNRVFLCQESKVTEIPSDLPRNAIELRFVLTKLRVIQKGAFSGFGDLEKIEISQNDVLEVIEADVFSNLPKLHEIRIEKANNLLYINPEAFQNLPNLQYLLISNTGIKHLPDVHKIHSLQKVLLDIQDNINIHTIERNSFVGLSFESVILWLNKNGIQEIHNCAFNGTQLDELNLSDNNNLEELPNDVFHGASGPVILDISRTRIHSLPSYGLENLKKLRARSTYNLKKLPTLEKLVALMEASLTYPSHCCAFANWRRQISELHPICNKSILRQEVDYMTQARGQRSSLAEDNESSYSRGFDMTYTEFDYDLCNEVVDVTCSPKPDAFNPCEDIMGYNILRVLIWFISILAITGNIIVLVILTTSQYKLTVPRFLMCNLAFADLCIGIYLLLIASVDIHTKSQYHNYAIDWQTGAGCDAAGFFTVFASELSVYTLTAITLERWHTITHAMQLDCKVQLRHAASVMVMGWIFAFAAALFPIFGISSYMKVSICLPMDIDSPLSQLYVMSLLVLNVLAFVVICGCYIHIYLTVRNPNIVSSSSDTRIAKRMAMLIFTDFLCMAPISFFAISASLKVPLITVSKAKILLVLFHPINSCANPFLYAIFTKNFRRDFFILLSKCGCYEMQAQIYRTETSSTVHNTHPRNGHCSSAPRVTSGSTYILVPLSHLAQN
Nature of the assay: HTRF cAMP agonist assay, FSHR, transiently transfected CHO-K1 cells. The format is cell-based. The following applies: CHO-K1 cells transiently expressing human FSHR, read-out: IC50 FSHR LANCE CAMP. The text has this:
Example 17. HTRF cAMP Agonist Assay Protocol (for FSHR, TSHR, LHCGR)
Mammalian expression vectors designed to express either Follicle Stimulating Hormone Receptor (FSHR), Thyroid Stimulating Hormone Receptor (TSHR), or Luteinizing Hormone/Choriogonadotropin Receptor (LHCGR), were generated with an HA-tag on the N-terminus. All constructs were expressed under a human cytomegalovirus (CMV) immediate early enhancer and promoter using the pHM6 expression vector. The protein coding region was confirmed by sequence analysis to be in-frame and of the expected sequence, matching the following accession numbers: FSHR NM_000145, TSHR NM_000369, and LHCGR NM_000233.
HTRF cAMP assays were performed using Chinese Hamster Ovary (CHO-K1) cell lines transiently expressing human FSH, TSH, and LHCG receptors. 48 hours before the assay, cells were washed with PBS and then dissociated from tissue culture flasks with 0.25% trypsin. Dissociated cells were quenched in full media (F-12K Medium Corning REF #10-025-CV, 10% Avantor Seradigm FB Essence Cat #10803-034, 1% Penicillin/Streptomycin Cytiva HyClone Cat #SV30010) and then collected by centrifugation at 290×g for 5 min. Cells were resuspended in full media and dispensed into 150 mm cell culture dishes (Nest Scientific Cat #715001), at 2.3×10^6 cells/flask. 7 hours later, cells were transfected using Lipofectamine transfection reagent (Invitrogen Cat #18324020). Briefly, 60 μL of lipofectamine was dispensed into 2 mL of Opti-MEM (Gibco Cat #31985070) and incubated for 5 minutes at room temperature. Then, the mixture was added onto […] of DNA and incubated for another 20 minutes at room temperature. Cells were washed with warm (37° C.) PBS. 17.5 mL of Opti-MEM was dispensed onto the cells, followed by addition of the Opti-MEM/lipofectamine/DNA mixture. Cells were incubated overnight in a 37° C., 5% CO2 cell incubator. 17-19 hours later, Opti-MEM was aspirated off the cells and replaced with full media. Cells were incubated for another 24 hours in a 37° C., 5% CO2 cell incubator.
On the day of the assay, cells were washed with PBS and then dissociated from tissue culture flasks with 0.25% trypsin. Dissociated cells were quenched in full media and then collected by centrifugation at 290×g for 5 min. Cells were resuspended in PBS^+/+ (Corning REF #20-030-CV) to a concentration of 2×10^5 cells/mL. 10 μL/well of cells (2,000 cells/well) were dispensed into 384-well Corning plates (REF #3825), in triplicate. Cells were incubated at room temperature for 2 hours.
Example FSHR Modulator compounds were diluted in assay buffer (PBS^+/+, 0.05% BSA Sigma-Aldrich A3059, 500 μM IBMX Sigma-Aldrich 15879) to 3.5× the final assay concentration. 4 μL of test agonist was added to the cells and incubated for 1 hour at room temperature. 10 μL of cAMP detection reagents (LANCE Ultra cAMP Detection Kit PerkinElmer TRF0264) were dispensed onto the cells and plates were incubated for 2 hours at room temperature (cAMP detection reagents were made according to the PerkinElmer kit protocol). Plates were read on an Envision plate reader following PerkinElmer guidelines.
Raw data for all assays was transmitted directly from plate readers into a database for processing. All assay plates contained both positive and negative control wells to allow for data normalization and scaling. In agonist assays, negative control wells contained assay buffer and positive control wells contained […] positive control (10 nM Follicle Stimulating Hormone Sigma-Aldrich F4021, 50 nM Thyroid Stimulating Hormone Sigma-Aldrich 869006, 50 nM Luteinizing Hormone MyBioSource MBS5308806, for their respective receptors). All control wells contained DMSO at a final assay concentration that matched the test compound wells. […]
Percent control data were analyzed by non-linear regression with a sigmoidal dose response algorithm in the database to yield potency and efficacy data.
Turning to `COc1cc2c(cc1-c1cncc(C(N)=O)c1)-c1c(c(C(=O)N3CCCNCC3)nn1-c1cc(Cl)cc(Cl)c1)CC2` [Compound 8-03, 5-[3-(1,4-diazepane-1-carbonyl)-1-(3,5-dichlorophenyl)-7-methoxy-4,5-dihydrobenzo[g]indazol-8-yl]pyridine-3-carboxamide], the negative logarithm of the IC50 (pIC50) is 6.35.

As to `COc1cc2c(cc1-c1ccn(C)n1)-c1c(c(C(=O)N(C)C(C)(C)C)nn1-c1ccsc1)OC2` [Compound 2-08], the negative-log IC50 (pIC50) was 6.32.

For the molecule `COc1cc2c(cc1-c1ccn(C)n1)-c1c(c(C(=O)N3CCOCC3(C)C)nn1-c1ccsc1)C2` [Compound 5-07, (3,3-dimethylmorpholin-4-yl)-[6-methoxy-7-(1-methylpyrazol-3-yl)-1-(3-thienyl)-4H-indeno[1,2-c]pyrazol-3-yl]methanone], the pIC50 was 6.94.

Consider `COc1cc2c(cc1-c1cncc(C(N)=O)c1)-c1c(c(C(=O)N3CNC(=O)C3(C)C)nn1-c1cc(Cl)cc(Cl)c1)CC2` [Compound 8-72], for which the pIC50 is 8.05.

In the case of `COc1cc2c(cc1-c1cncc(C(N)=O)c1)-c1c(c(C(=O)N3CCNCC3(C)C)nn1-c1cc(Cl)cc(Cl)c1)CC2` [Compound 8-02], the pIC50 was 7.52.

Regarding `CCCCn1nc(C(=O)N2CCOCC2(C)C)c2c1-c1cc(-c3cncc(C(N)=O)c3)c(OC)cc1CC2` [Compound 9-15, 5-[1-butyl-3-(3,3-dimethylmorpholine-4-carbonyl)-7-methoxy-4,5-dihydrobenzo[g]indazol-8-yl]pyridine-3-carboxamide], the pIC50 was 7.38.

`COc1cc2c(cc1-c1cncc(C(N)=O)c1)-c1c(c(C(=O)N3CCCC(=O)C3(C)C)nn1-c1cc(Cl)cc(Cl)c1)CC2` [Compound 8-67, 5-(1-(3,5-dichlorophenyl)-3-(2,2-dimethyl-3-oxopiperidine-1-carbonyl)-7-methoxy-4,5-dihydro-1H-benzo[g]indazol-8-yl)nicotinamide]: the pIC50 is 8.37.

Regarding `COc1cc2c(cc1-c1cncc(C(N)=O)c1)-c1c(c(C(=O)N3CCNC(=O)C3(C)C)nn1-c1cc(Cl)cc(Cl)c1)SC2` [Compound 12-16], the pIC50 was 7.68.

In the case of `COc1cc2c(cc1-c1cncc(C(N)=O)c1)-c1c(c(C(=O)N3CCOCC3(C)C)nn1-c1ccccn1)CC2` [Compound 10-01, 5-[3-(3,3-dimethylmorpholine-4-carbonyl)-7-methoxy-1-(2-pyridyl)-4,5-dihydrobenzo[g]indazol-8-yl]pyridine-3-carboxamide], the pIC50 is 8.30.

As for `COc1cc2c(cc1-c1cncc(C(N)=O)c1)-c1c(c(C(=O)N3CCNC(=O)C3(C)C)nn1-c1cc(Cl)cc(Cl)c1)CC2` [Compound 8-26b], the negative logarithm of the IC50 (pIC50) is 7.69.

Take `CCCN1CCN(C(=O)c2nn(-c3cc(Cl)cc(Cl)c3)c3c2CCc2cc(OC)c(-c4cncc(C(N)=O)c4)cc2-3)C(C)(C)C1` [Compound 8-63]: the negative logarithm of the IC50 (pIC50) is 6.92.

`CCC1C(=O)NCCN1C(=O)c1nn(-c2cc(Cl)cc(Cl)c2)c2c1CCc1cc(OC)c(-c3cncc(C(N)=O)c3)cc1-2` (stereo not shown) [Compound 8-84]: the pIC50 is 7.49.

On to `COc1cc2c(cc1-c1cncc(C(N)=O)c1)-c1c(c(C(=O)N3CCNC(=O)C3(C)C)nn1-c1cc(Cl)cc(Cl)c1)OC2` [Compound 12-18], for which the pIC50 is 7.17.

With `COc1cc2c(cc1-c1cncc(C(N)=O)c1)-c1c(c(C(=O)N(C)C(C)(C)C)nn1-c1ccsc1)C2` [Compound 5-04, N-tert-butyl-7-(5-carbamoyl-3-pyridyl)-6-methoxy-N-methyl-1-(3-thienyl)-4H-indeno[1,2-c]pyrazole-3-carboxamide], the negative-log IC50 (pIC50) is 8.09.

With `COc1cc2c(cc1-c1cncc(C(N)=O)c1)-c1c(c(C(=O)N3CCN(C4CC4)CC3(C)C)nn1-c1cc(Cl)cc(Cl)c1)CC2` [Compound 8-62], the pIC50 is 6.91.

Consider `COc1cc2c(cc1-c1cncc(C(N)=O)c1)-c1c(c(C(=O)N3CCOC[C@@H]3C)nn1-c1cc(Cl)cc(Cl)c1)CC2` [Compound 8-43], for which the negative logarithm of the IC50 (pIC50) was 8.59.

In the case of `COc1cc2c(cc1-c1cncc(C(N)=O)c1)-c1c(c(C(=O)N3CCOCC3(C)C)nn1C1CCCCC1)CC2` [Compound 9-16], the negative logarithm of the IC50 (pIC50) was 7.03.

On to `COc1cc2c(cc1-c1cncc(C(N)=O)c1)-c1c(c(C(=O)N3CCN(C#N)CC3C)nn1-c1cc(Cl)cc(Cl)c1)CC2` (stereo not shown) [Compound 8-09, 5-[3-(4-cyano-2-methyl-piperazine-1-carbonyl)-1-(3,5-dichlorophenyl)-7-methoxy-4,5-dihydrobenzo[g]indazol-8-yl]pyridine-3-carboxamide], for which the pIC50 was 8.35.

For `COc1cc2c(cc1-c1cncc(C(N)=O)c1)-c1c(c(C(=O)N(C)C(C)(C)C)nn1-c1ccsc1)OC2` [Compound 2-04], the pIC50 was 8.10.

Turning to `COc1cc2c(cc1-c1cncc(C(N)=O)c1)-c1c(c(C(=O)N3CCN(C)CC3(C)C)nn1-c1cc(Cl)cc(Cl)c1)CC2` [Compound 8-06], the pIC50 is 7.76.

On to `COc1cc2c(cc1-c1cncc(C(N)=O)c1)-c1c(c(C(=O)N3CCNC(=O)C3(C)C)nn1-c1ccccn1)CC2` [Compound 15-01, 5-[3-(2,2-dimethyl-3-oxo-piperazine-1-carbonyl)-7-methoxy-1-(2-pyridyl)-4,5-dihydrobenzo[g]indazol-8-yl]pyridine-3-carboxamide], for which the pIC50 is 7.12.

On to `COc1cc2c(cc1-c1ccn(C)n1)-c1c(c(C(=O)N3CCOCC3(C)C)nn1-c1cc(Cl)cc(Cl)c1)OC2` [Compound 2-05, [1-(3,5-dichlorophenyl)-7-methoxy-8-(1-methylpyrazol-3-yl)-5H-isochromeno[4,3-c]pyrazol-3-yl]-(3,3-dimethylmorpholin-4-yl)methanone], for which the pIC50 was 6.20.

With `COc1cc2c(cc1-c1cncc(C(N)=O)c1)-c1c(c(C(=O)N3CCOCC3(C)C)nn1-c1ccncc1)CC2` [Compound 10-03], the pIC50 is 6.72.

Consider `COc1cc2c(cc1-c1cncc(C(N)=O)c1)-c1c(c(C(=O)N3CCCNCC3(C)C)nn1-c1cc(Cl)cc(Cl)c1)CC2` [Compound 8-04, 5-[1-(3,5-dichlorophenyl)-3-(2,2-dimethyl-1,4-diazepane-1-carbonyl)-7-methoxy-4,5-dihydrobenzo[g]indazol-8-yl]pyridine-3-carboxamide], for which the pIC50 is 7.55.

On to `COC(=O)c1cc(OC)nc(-c2cc3c(cc2OC)CCc2c(C(=O)N(C)C(C)(C)C)nn(-c4cc(Cl)cc(Cl)c4)c2-3)c1` [Compound 11-01A, methyl2-[3-[tert-butyl(methyl)carbamoyl]-1-(3,5-dichlorophenyl)-7-methoxy-4,5-dihydrobenzo[g]indazol-8-yl]-6-methoxy-pyridine-4-carboxylate], for which the pIC50 was 7.30.

The pIC50 is the IC50 on a negative log10 scale, so that one unit is a factor of ten.

The values above are taken from US20260008783A1, “MODULATORS OF FSHR AND USES THEREOF” (Celmatix Inc., priority 2022, published 2026).
